Values belong to the molecule of their own block, whether it stands above or below them.
Columns and labels:
Homo sapiens = experiment: Toxicity in HIV-infected Thai pregnant women assessed as adverse effect at 400 mg, po bid initiated intrapartum administered for 30 days in combination with 100 mg, po bid ritonavir; type: organism-based; conditions: in vivo, 720 h
[1] = Drug level in HIV-infected Thai pregnant women serum at 400 mg, po bid initiated intrapartum in combination with 100 mg, po bid ritonavir measured 12 hrs post last dose; type: ADME, organism-based; conditions: female, human, read-out: Drug uptake
[2] = Drug level in HIV-infected Thai pregnant women serum at 400 mg, po bid initiated intrapartum administered for 30 days in combination with 100 mg, po bid ritonavir measured 4 hrs post last dose; type: ADME, organism-based; conditions: female, human, read-out: Drug uptake
[3] = AUC (0 to 12 hrs) in HIV-infected Thai pregnant women at 400 mg, po bid initiated intrapartum in combination with 100 mg, po bid ritonavir measured within 72 hrs postpartum; type: ADME, organism-based; parameters: time < 12 hr, dose 400 mg, route oral; conditions: female, human, plasma
[4] = Tmax in HIV-infected Thai pregnant women at 400 mg, po bid initiated intrapartum in combination with 100 mg, po bid ritonavir measured within 72 hrs postpartum; type: ADME, organism-based; conditions: female, human, in vivo
[5] = Cmax in HIV-infected Thai pregnant women at 400 mg, po bid initiated intrapartum in combination with 100 mg, po bid ritonavir measured within 72 hrs postpartum; type: ADME, organism-based; parameters: dose 400 mg, route oral; conditions: female, human, in vivo
Serum [6] = experiment: Ratio of drug level in 4 hrs to 30 days post last dose of HIV-infected Thai pregnant women serum at 400 mg, po bid initiated intrapartum in combination with 100 mg, po bid ritonavir; type: ADME, organism-based; conditions: human, in vivo
Serum [7] = experiment: Ratio of drug level in 2 hrs to 30 days post last dose of HIV-infected Thai pregnant women serum at 400 mg, po bid initiated intrapartum in combination with 100 mg, po bid ritonavir; type: ADME, organism-based; conditions: human, in vivo
Serum [8] = experiment: Ratio of drug level before intrapartum initiation to 30 days pre-last dose of HIV-infected Thai pregnant women serum at 400 mg, po bid in combination with 100 mg, po bid ritonavir; type: ADME, organism-based; conditions: human, in vivo, 720 h
[9] = Drug level in HIV-infected Thai pregnant women serum at 400 mg, po bid initiated intrapartum administered for 30 days in combination with 100 mg, po bid ritonavir measured 2 hrs post last dose; type: ADME, organism-based; conditions: female, human, read-out: Drug uptake
[10] = Drug level in HIV-infected Thai pregnant women serum at 400 mg, po bid initiated intrapartum in combination with 100 mg, po bid ritonavir measured 2 hrs post last dose; type: ADME, organism-based; conditions: female, human, read-out: Drug uptake
Serum [11] = experiment: Drug level in HIV-infected Thai pregnant women serum before intrapartum initiation of 400 mg, po bid in combination with 100 mg, po bid ritonavir; type: ADME, organism-based; conditions: human, in vivo
[12] = Drug level in HIV-infected Thai pregnant women serum at 400 mg, po bid initiated intrapartum administered for 30 days in combination with 100 mg, po bid ritonavir measured before administering last dose; type: ADME, organism-based; conditions: female, human, read-out: Drug uptake
[13] = Drug level in HIV-infected Thai pregnant women serum at 400 mg, po bid initiated intrapartum in combination with 100 mg, po bid ritonavir measured 4 hrs post last dose; type: ADME, organism-based; conditions: female, human, read-out: Drug uptake
[14] = Drug level in HIV-infected Thai pregnant women serum at 100 mg, po bid initiated intrapartum in combination with 400 mg, po bid Lopinavir measured 2 hrs post last dose; type: ADME, organism-based; conditions: female, human, read-out: Drug uptake
Serum [15] = experiment: Ratio of drug level in 4 hrs to 30 days post last dose of HIV-infected Thai pregnant women serum at 100 mg, po bid initiated intrapartum in combination with 400 mg, po bid Lopinavir; type: ADME, organism-based; conditions: human, in vivo
[16] = Drug level in HIV-infected Thai pregnant women serum at 100 mg, po bid initiated intrapartum in combination with 400 mg, po bid Lopinavir measured 12 hrs post last dose; type: ADME, organism-based; conditions: female, human, read-out: Drug uptake
[17] = Tmax in HIV-infected Thai pregnant women at 100 mg, po bid initiated intrapartum in combination with 400 mg, po bid Lopinavir measured within 72 hrs postpartum; type: ADME, organism-based; conditions: female, human, in vivo
[18] = Drug level in HIV-infected Thai pregnant women serum at 100 mg, po bid initiated intrapartum in combination with 400 mg, po bid Lopinavir measured 4 hrs post last dose; type: ADME, organism-based; conditions: female, human, read-out: Drug uptake
Serum [19] = experiment: Drug level in HIV-infected Thai pregnant women serum before intrapartum initiation of 100 mg, po bid in combination with 400 mg, po bid Lopinavir; type: ADME, organism-based; conditions: human, in vivo
[20] = AUC (0 to 12 hrs) in HIV-infected Thai pregnant women at 100 mg, po bid initiated intrapartum in combination with 400 mg, po bid Lopinavir measured within 72 hrs postpartum; type: ADME, organism-based; parameters: time < 12 hr, dose 100 mg, route oral; conditions: female, human, plasma
Serum [21] = experiment: Ratio of drug level in 2 hrs to 30 days post last dose of HIV-infected Thai pregnant women serum at 100 mg, po bid initiated intrapartum in combination with 400 mg, po bid Lopinavir; type: ADME, organism-based; conditions: human, in vivo
[22] = Drug level in HIV-infected Thai pregnant women serum at 100 mg, po bid initiated intrapartum administered for 30 days in combination with 400 mg, po bid Lopinavir measured 4 hrs post last dose; type: ADME, organism-based; conditions: female, human, read-out: Drug uptake
[23] = Drug level in HIV-infected Thai pregnant women serum at 100 mg, po bid initiated intrapartum administered for 30 days in combination with 400 mg, po bid Lopinavir measured 2 hrs post last dose; type: ADME, organism-based; conditions: female, human, read-out: Drug uptake
[24] = Drug level in HIV-infected Thai pregnant women serum at 100 mg, po bid initiated intrapartum administered for 30 days in combination with 400 mg, po bid Lopinavir measured before administering last dose; type: ADME, organism-based; conditions: female, human, read-out: Drug uptake
[25] = Cmax in HIV-infected Thai pregnant women at 100 mg, po bid initiated intrapartum in combination with 400 mg, po bid Lopinavir measured within 72 hrs postpartum; type: ADME, organism-based; parameters: dose 100 mg, route oral; conditions: female, human, in vivo
Serum [26] = experiment: Ratio of drug level before intrapartum initiation to 30 days pre-last dose of HIV-infected Thai pregnant women serum at 100 mg, po bid in combination with 400 mg, po bid Lopinavir; type: ADME, organism-based; conditions: human, in vivo, 720 h

concentration at 12 h [1]: 5180 ng/mL
concentration at 4 h [2]: 13000 ng/mL
AUC at 12 h [3]: 99700 ng·h/mL
Tmax [4]: 3.9 h
Cmax [5]: 11200 ng/mL
Drug uptake (Serum [6]): 0.81
Drug uptake (Serum [7]): 0.85
Drug uptake (Serum [8]): 0.66
concentration at 2 h [9]: 11700 ng/mL
concentration at 2 h [10]: 10500 ng/mL
Drug uptake (Serum [11]): 6.08 µg/mL
concentration at 720 h [12]: 9170 ng/mL
concentration at 4 h [13]: 10800 ng/mL
Compound: Cc1cccc(C)c1OCC(=O)N[C@@H](Cc1ccccc1)[C@@H](O)C[C@H](Cc1ccccc1)NC(=O)[C@H](C(C)C)N1CCCNC1=O [LOPINAVIR]
Activity (Homo sapiens): Non-toxic

concentration at 2 h [14]: 450 ng/mL
Drug uptake (Serum [15]): 0.68
concentration at 12 h [16]: 100 ng/mL
Tmax [17]: 3.9 h
concentration at 4 h [18]: 580 ng/mL
Drug uptake (Serum [19]): 0.16 µg/mL
AUC at 12 h [20]: 4270 ng·h/mL
Drug uptake (Serum [21]): 0.76
concentration at 4 h [22]: 810 ng/mL
concentration at 2 h [23]: 610 ng/mL
concentration at 720 h [24]: 290 ng/mL
Cmax [25]: 600 ng/mL
Drug uptake (Serum [26]): 0.54
Compound: CC(C)c1nc(CN(C)C(=O)N[C@H](C(=O)N[C@@H](Cc2ccccc2)C[C@H](O)[C@H](Cc2ccccc2)NC(=O)OCc2cncs2)C(C)C)cs1 [RITONAVIR]

— ChEMBL document CHEMBL1649180, “Early postpartum pharmacokinetics of lopinavir initiated intrapartum in Thai women” (Antimicrob Agents Chemother, 2009)
